Patent publication US20150359742A1, “COMPOSITIONS AND METHODS FOR ENHANCING THE TOPICAL APPLICATION OF A BENEFIT AGENT INCLUDING POWDER TO LIQUID PARTICLES AND A SECOND POWDER” (Johnson & Johnson Consumer Inc., priority 2014, published 2015)

System: Pigmented human epidermal equivalents (MelanoDerm™)
Assay: In vitro test for depigmentation activity in pigmented human epidermal equivalents (MelanoDerm, MEL-300-B)
Assay type: cell-based
Conditions: applied topically daily for 8 days, measured on day 9
Text: Pigmented human epidermal equivalents (MelanoDerm™) from MatTek Corporation (Ashland, Mass.) were used to assess the depigmentation activity of test materials. MelanoDerm™ consists of normal, human-derived epidermal keratinocytes (NHEK) and melanocytes (NHM) which have been cultured to form a multilayered, highly differentiated model of the human epidermis. Specifically, MEL-300-B tissues, each 9 mm in diameter were used in the following tests.
The Example 2 ascorbic acid powder mixture was compared with 1% Ascorbic Acid 2-Glucoside (Hayashibara Co Ltd, Japan) in a solvent of 70% ethyl alcohol and 30% butylene glycol as a benchmark. Test materials were applied topically to the MelanoDerm™ skin model daily and the experiment lasted for 8 days. Measurement was taken on day 9. The macroscopic and microscopic visual tissue darkening end points were measured by taking pictures with a digital camera. The Degree of Lightness for each tissue (L-Value) was measured using a spectrophotometer (Konica Minolta CM-2600d). The ΔL (degree of lightness as compared to control) for each test sample is calculated as per following formula: […]
Degree of skin lightness:
ΔL*=L*-value of treated sample−L*-value of control sample.
ΔMexa Index=Melanin Index of control−Melanin Index of treated sample.

O=C1O[C@H]([C@@H](O)CO)C(O)=C1O[C@H]1O[C@H](CO)[C@@H](O)[C@H](O)[C@H]1O [1% ascorbic acid 2-glucoside in vehicle, Ascorbic Acid 2-Glucoside]
Δ Mexa Index (Melanin Index of control minus treated sample): 145.67 | Δ L-value (degree of skin lightness, treated minus control) (spectrophotometer): 2.34
